Test results as given in US6162799A, “Pesticidal compounds” (BTG International Limited, priority 1995, dated 2000).
≈ marks a conversion by molar mass, not a printed value. Read-outs that look alike come from different tables or passages of the source.

Experiments:
Format in all cases: in vivo
[1] = tested on: Musca domestica; assay: Topical test on houseflies (MD); conditions: for MD (LD50): houseflies, topical on thorax, kill assessed 24 and 48 h
Protocol: (§1) Pesticidal activity was assessed against houseflies, mustard beetles, mites and whitefly using the following methods.
Houseflies (MD) (Musca domestica)
Female flies were treated on the thorax with a one microliter drop of test compound dissolved in acetone. Two replicates of 15 flies were used at each dose rate and 6 dose rates were used per compound under test. After treatment, the flies were maintained at a temperature of 20°±1° C. and kill was assessed 24 and 48 hours after treatment. LD50 values were calculated in micrograms of test compound per fly (see Sawicki et al., Bulletin of the World Health Organisation, 35, 893 (1966) and Sawicki et al., Entomologia and Exp. Appli 10, 253, (1967).
(§2) The values given are LD50 (μg/insect) or LC50 (ppm solution of test compound) unless otherwise specified.

[2] = tested on: Phaedon cochleariae Fab; assay: Topical test on mustard beetles (PC); conditions: for PC (LD50): mustard beetles, topical, 48 h; for PC LD50 (comparative examples): Table 7
Protocol: as §1
Mustard beetles (PC) (Phaedon cochleariae Fab)
A one microliter drop of an acetone solution of the test compound was applied ventrally to adult mustard beetles using a micro drop applicator. The treated insects were maintained for 48 hours after which time kill was assessed. Two replicates each of 20 to 25 mustard beetles were used at each dose level and 5 dose levels were treated comparably. LD50 values were calculated as for houseflies.
as §2

[3] = tested on: Tetranychus urticae; assay: Immersion test on mites (TU), susceptible strain GSS; conditions: 72 h
Protocol: as §1
Mites (TU) (Tetranychus urticae)
25 adult female mites were immersed in 35 μl of a solution of the test compound in a 1:4 acetone-water mixture for 30 seconds. The treated insects were maintained at 21°±2° C. and kill was assessed 72 hours after treatment. […] Three replicates of 25 mites each were used at each dose rate and 5 or 6 dose rates were used per compound under test. LC50 values were calculated in ppm of the solution of the test compound per insect. The test was carried out using a susceptible strain of mites (GSS) supplied by Schering, AG, Berlin.
as §2

[4] = tested on: Bemisia tabaci; assay: Film/vial test on whitefly (BT), susceptible strain SUD-S; conditions: 48 h; for mortality at 100 ppm: read-out: BT (SUD-S) kill at 100 ppm
Protocol: as §1
Whitefly (BT) (Bemisia tabaci)
Acetone solutions (0.100 ml) of the test compounds were placed in 10 ml glass vials and evaporated with rotation to deposit a film of the compound. Thirty adult whiteflies were placed inside the vial, then after 60 minutes, the treated insects were transferred onto untreated cotton leaf discs which were kept moist on a bed of agar gel. The temperature was maintained at 25° C. and mortality assessed after 48 hours. Three replicates were used at each of 5 to 7 dose levels per compound. LC50 values were calculated by using a computer software package ("Polo-PC" available from LeOra Software, Berkeley, Calif.). (See M. R. Cahill and B. Hackett in Proceedings Brighton Crop Protection Conference, 1992). The test was carried out using a susceptible strain of whitefly (SUD-S) which was collected in Sudan in 1978 from cotton.
as §2

[5] = tested on: Myzus persicae; assay: Aphicidal activity, topical application; conditions: 72 h
Protocol: (§3) Activity against resistant (R) and susceptible (S) strains of aphid (Myzus persicae) and Aphis gossypiae was assessed using the following two methods.
Batches of 10-15 apterous adults were removed from stock cultures and placed on leaf discs (35 mm in diameter) cut from chinese cabbage and held on an agar bed (25 mm deep) in disposable plastic containers (30 mm high). Using a Burkhard micro-applicator aphids were dosed individually with a 0.25 μm droplet of chemical diluted to the required concentration in acetone. control insects were dosed with acetone only. Mortality and other effects were scored at 24 hour intervals up to and including 72 hour post-treatment, the end-point to which the results relate.
(§4) The test was carried out using a susceptible strain of aphids (US1L) collected in the field in East Anglia, UK and an extremely resistant strain of aphids (794Jz) (R^3 esterase, sensitive ACHE) collected from glasshouses in the UK.
(§5) The values given are % mortality corrected for control data. The control comprised the test solution without active ingredient.

[6] = tested on: Myzus persicae; assay: Aphicidal activity, aphid-dip
Protocol: as §3
(§6) Entrapment rings of fluon were painted halfway up the inside of 4 cm lengths of glass tubing (1.5 cm diameter), and squares of insect-proof gauze were attached to one end of each tube by elastic bands. Fifteen apterous adults were then gently transferred into the tubes using a sable-hair brush, and the tube sealed with a second gauze square.
(§7) Tubes containing aphids were dipped into insecticide solutions for 10 seconds, dried on blotting paper, and then inverted and tapped to cause treated aphids to fall to the unimmersed end of each tube. Handling mortality (usually zero or very slight) was scored after 1 hour, when aphids were transferred onto chinese cabbage leaf-discs (35 mm diameter) on an agar bed (25 mm in depth) in disposible plastic containers (30 mm high) and confined by applying a ring of fluon to the exposed lip of the container. Containers were stored upright, without lids, in a constant environment facility maintained at 25° C. under continuous room lighting. Mortality was assessed at 24, 48 and 72 hours. Two replicates of 15 aphids each were used at each dose rate and 5 or 6 dose rates were used per compound under test.
as §4, §5

[7] = tested on: Aphis gossypiae; assay: Aphicidal activity, aphid-dip; conditions: strain 81-171B, read-out: Aphid-dip result, % kill A.G. 81-171B
Protocol: as §3, §6, §7, §5

[8] = susceptible strain USIL, read-out: Topical aphid results, % kill M.P. USIL
[9] = read-out: TU LC50 (comparative examples)
[10] = read-out: BT LC50 (comparative examples)
[11] = susceptible strain USIL, read-out: Aphid-dip result, % kill M.P. USIL
[12] = resistant strain 794JZ, read-out: Aphid-dip result, % kill M.P. 794JZ

C[Si](C)(C)CCC1=C(OC(=O)c2ccccc2)C(=O)c2ccccc2C1=O [Example 1, 2-benzoyloxy-3-(2'-trimethylsilylethyl)-1,4-naphthoquinone]
MD (LD50) [1]: > 20 μg/insect
PC (LD50) [2]: > 20 μg/insect
LC50 ([3]; read-out: TU (GSS) (LC50)): 110 µg/mL (≈ 291 µM)

CC[Si](C)(C)CCCCCCCCC1=C(O)C(=O)c2ccccc2C1=O [Example 14, 2-hydroxy-3(8-(dimethylethylsilyl)octyl)-1,4-naphthoquinone]
LC50 ([4]; read-out: BT (SUD-S) (LC50)): 15 µg/mL (≈ 40.3 µM)
mortality at 100 ppm [5, 8]: 74%

C[Si]1(CCCCCCCCC2=C(O)C(=O)c3ccccc3C2=O)CCCC1 [Example 18, 2-Hydroxy-3-(8-(1-methyl-(tetramethylenesilyl))octyl)-1,4-naphthoquinone]
LC50 ([3]; read-out: TU (GSS) (LC50)): 3.6 µg/mL (≈ 9.36 µM)
mortality at 100 ppm [5, 8]: 59%

CCCCCCC1=C(O)C(=O)c2ccccc2C1=O [--(CH2)5 CH3, reference compound]
LC50 [3, 9]: 170 µg/mL (≈ 658 µM)
LC50 [4, 10]: 9.4 µg/mL (≈ 36.4 µM)

CCCC1=C(O)C(=O)c2ccccc2C1=O [--(CH2)2 CH3, reference compound]
LC50 [4, 10]: 80 µg/mL (≈ 370 µM)

CCC[Si](C)(C)CCCCCCCCC1=C(O)C(=O)c2ccccc2C1=O [Example 17]
LC50 ([3]; read-out: TU (GSS) (LC50)): 8.4 µg/mL (≈ 21.7 µM)
LC50 ([4]; read-out: BT (SUD-S) (LC50)): 13 µg/mL (≈ 33.6 µM)
mortality at 100 ppm [5, 8]: 88%

CCOCOC1=C(CCCCCCCCC[Si](C)(C)C)C(=O)c2ccccc2C1=O [Example 24, 2-ethoxymethoxy-3-(9-trimethylsilylnonyl)-1,4-naphthoquinone]
mortality at 100 ppm [4]: 19%
mortality at 100 ppm [5, 8]: 16%

C[Si](C)(C)CCCC1=C(O)C(=O)c2ccccc2C1=O [Example 7]
MD (LD50) [1]: 4.4 μg/insect
LC50 ([3]; read-out: TU (GSS) (LC50)): 6.4 µg/mL (≈ 22.2 µM)
mortality at 100 ppm [5, 8]: 45%
mortality at 100 ppm [6, 11]: 90%
mortality at 100 ppm [7]: 57%

C[Si](C)(C)CC1=C(O)C(=O)c2ccccc2C1=O [Example 6]
LC50 ([4]; read-out: BT (SUD-S) (LC50)): 1.7 µg/mL (≈ 6.53 µM)

CC[Si](CC)(CC)CCCCCCCCC1=C(O)C(=O)c2ccccc2C1=O [Example 15]
LC50 ([3]; read-out: TU (GSS) (LC50)): 5.2 µg/mL (≈ 13 µM)
LC50 ([4]; read-out: BT (SUD-S) (LC50)): 22 µg/mL (≈ 54.9 µM)
mortality at 100 ppm [5, 8]: 58%

CC(=O)OC1=C(CC[Si](C)(C)C)C(=O)c2ccccc2C1=O [Example 4, 2-ethanoyloxy-3-(2'-trimethylsilylethyl)-1,4-naphthoquinone]
LC50 ([3]; read-out: TU (GSS) (LC50)): 45 µg/mL (≈ 142 µM)
LC50 ([4]; read-out: BT (SUD-S) (LC50)): 2.9 µg/mL (≈ 9.16 µM)
mortality at 100 ppm [6, 12]: 19%
mortality at 100 ppm [6, 11]: 19%

C[Si](C)(C)CC=CC1=C(O)C(=O)c2ccccc2C1=O [Example 20, 2-hydroxy-3-(3-trimethylsilyl-1-propenyl)-1,4-naphthoquinone]
PC (LD50) [2]: > 20 μg/insect
LC50 ([3]; read-out: TU (GSS) (LC50)): 21 µg/mL (≈ 73.3 µM)
LC50 ([4]; read-out: BT (SUD-S) (LC50)): 30 µg/mL (≈ 105 µM)

CCCCCCCCCCC1=C(O)C(=O)c2ccccc2C1=O [--(CH2)9 CH3, reference compound]
PC LD50 (comparative examples) [2]: 1.9 μg/insect

C[Si]1(CCCCCCCCC2=C(O)C(=O)c3ccccc3C2=O)CCCCC1 [Example 19, 2-hydroxy-3-(8-(1-methyl-(pentamethylenesilyl))octyl)-1,4-naphthoquinone]
mortality at 100 ppm [4]: 13%

C[Si](C)(C)CCCCC1=C(O)C(=O)c2ccccc2C1=O [Example 8]
MD (LD50) [1]: 1.8 μg/insect
LC50 ([3]; read-out: TU (GSS) (LC50)): 9.2 µg/mL (≈ 30.4 µM)
mortality at 1000 ppm ([5]; resistant strain 794JZ, 1000 ppm, read-out: Topical aphid results, % kill M.P. 794JZ): 100%
mortality at 100 ppm [5, 8]: 90%
mortality at 100 ppm [6, 12]: 100%
mortality at 100 ppm [6, 11]: 90%

CCC(=O)OC1=C(CCCCCCCCC[Si](C)(C)C)C(=O)c2ccccc2C1=O [Example 22, 2-propanoyloxy-3-(9-trimethylsilylnonyl)-1,4-naphthoquinone]
mortality at 100 ppm [5, 8]: 37%

COC1(OC)C(O)=C(CC[Si](C)(C)C)C(=O)c2ccccc21 [Example 5, 2-hydroxy-3-(2'-trimethylsilylethyl)-1,4-naphthoquinone, 1-dimethyl acetal]
MD (LD50) [1]: > 20 μg/insect
PC (LD50) [2]: ~20 μg/insect
LC50 ([3]; read-out: TU (GSS) (LC50)): 41 µg/mL (≈ 128 µM)

C[Si](C)(C)CCCCCCCCCCC1=C(O)C(=O)c2ccccc2C1=O [Example 13]
MD (LD50) [1]: 9.9 μg/insect
LC50 ([3]; read-out: TU (GSS) (LC50)): 2.2 µg/mL (≈ 5.69 µM)
mortality at 100 ppm [5, 8]: 90%
mortality at 100 ppm [6, 11]: 90%
mortality at 100 ppm [7]: 83%

C[Si](C)(C)CCCCCCC1=C(O)C(=O)c2ccccc2C1=O [Example 9, 2-Hydroxy-3(6'-trimethylsilylhexyl)-1,4-naphthoquinone]
MD (LD50) [1]: 1.8 μg/insect
LC50 ([3]; read-out: TU (GSS) (LC50)): 4.5 µg/mL (≈ 13.6 µM)
mortality at 100 ppm [5, 8]: 100%
mortality at 100 ppm [6, 11]: 100%
mortality at 100 ppm [7]: 71%

CC(=O)OC1=C(CCCCCCCCC[Si](C)(C)C)C(=O)c2ccccc2C1=O [Example 21, 2-ethanoyloxy-3-(9-trimethylsilylnonyl)-1,4-naphthoquinone]
LC50 ([3]; read-out: TU (GSS) (LC50)): 2 µg/mL (≈ 4.82 µM)
LC50 ([4]; read-out: BT (SUD-S) (LC50)): < 100 µg/mL
mortality at 100 ppm ([5]; resistant strain 794JZ, read-out: Topical aphid results, % kill M.P. 794JZ): 89%
mortality at 125 ppm ([5]; susceptible strain USIL, 125 ppm, read-out: Topical aphid results, % kill M.P. USIL): 66%
mortality at 100 ppm [6, 11]: 66%

CCC[Si](CCC)(CCC)CCCCCCCCC1=C(O)C(=O)c2ccccc2C1=O [Example 16]
PC (LD50) [2]: > 20 μg/insect
mortality at 100 ppm [4]: 79%
mortality at 100 ppm [5, 8]: 24%

C=COC(=O)OC1=C(CCCCCCCCC[Si](C)(C)C)C(=O)c2ccccc2C1=O [Example 23, 2-vinylcarbonato-3-(9-trimethylsilylnonyl)-1,4-naphthoquinone]
mortality at 100 ppm [4]: 32%
mortality at 100 ppm [5, 8]: 63%

CCCCCCCCC1=C(O)C(=O)c2ccccc2C1=O [--(CH2)7 CH3, reference compound]
MD LD50 (comparative examples) ([1]; Table 7): 1.9 μg/insect
PC LD50 (comparative examples) [2]: 0.78 μg/insect

CCCCCCCCCCCCC1=C(O)C(=O)c2ccccc2C1=O [--(CH2)11 CH3, reference compound]
LC50 [3, 9]: < 60 µg/mL
LC50 [4, 10]: > 100 µg/mL
